Assay results from US4965280A, “Antifungal carbinols” (E. I. Du Pont de Nemours and Company, priority 1989, dated 1990).
Converted amounts (≈) assume the structure as drawn. Like-named read-outs stand apart in the source and are kept apart here.

Legend:
[1] = system: Candida albicans ATCC 11651; experiment: In vivo systemic Candida infection in mice, primary assay; parameters: species or system Candida albicans; CF-1 female mice; conditions: 150 mg/kg per day; for responders at 150 mg/kg: Candida albicans, read-out: % Survival
Source text: The […] activity of test compounds is based on the percent (%) survival of infected animals receiving test or standard agent compared to that in an infected untreated group (Table 6). The in vivo assays are chronic systemic infections lethal to mice within 7 days post infection, [J. Barnes, et al. Lab Investigation, 49 460-467 (1963), and T. Rogers and E. Balish, Infection and Immunity, 14 33-38 (1976)].
Candida albicans ATCC 11651, from a frozen stock culture (10^9 organisms/ml) maintained at -70°, is diluted in saline to 1×10^7 organisms/ml and 0.2 ml inoculated intravenously (caudal vein) into 20.0 gm CF-1 female mice (Charles River).
Test compounds are routinely solubilized in 0.25% (w/v) methylcellulose (Methocel®) but for those compounds difficult to solubilize 10% (w/v) Emulophor® (EL620 GAF Corp.) is used. The standard antifungal agents, amphotericin B (Fungizone®) in water and ketoconazole (Nizoral®) in Methocel®, are administered at 1.0 mg/kg/day and 150 mg/kg/day, respectively.
In a primary assay, mice (10 per group) are infected with C. albicans, and receive test compounds at 50 or 150 mg/kg/day via the subcutaneous route. Animals are dosed with the test compound at 1 and 6 hour post-infection and then once daily for the next three days. Survival of mice in each group is recorded for 21 days.
Compounds which protect ≥70% of the infected animals for 14 days at a dose 150 mg/kg/day or less are viewed as active.

Venturia inaequalis = experiment: Example A apple scab; assay type: in vivo; conditions: read-out: disease control rating, Ex. A
Experimental: (§1) The test compounds were dissolved in acetone in an amount equal to 6% of the final volume and then suspended at a concentration of 100 or 20 ppm in purified water containing 250 ppm of the surfactant TREM 014 (polyhydric alcohol esters). This suspension was sprayed to the point of run-off on apple seedings.

[2] = system: Cercosporidium personatum; experiment: Example B Peanut Late Leafspot; assay type: in vivo; conditions: Nothopassalora personata, read-out: disease control rating, Ex. B
Experimental: as §1, with “peanut seedlings.” for “apple seedings.”

Botrytis cinerea = experiment: Example C bean grey mold; assay type: in vivo; conditions: for pest or weed control at 100 ppm / pest or weed control at 20 ppm: Botrytis cinerea, 24 h, read-out: disease control rating, Ex. C
Experimental: as §1, with “broad bean seedlings.” for “apple seedings.”

[3] = system: Erysiphe graminis f. sp. tritici; experiment: Example D wheat powdery mildew; assay type: in vivo; conditions: Blumeria graminis, 144 h, read-out: disease control rating, Ex. D
Experimental: as §1, with “wheat seedlings.” for “apple seedings.”

Pyricularia oryzae = experiment: whole plant or invertebrate; assay type: in vivo; conditions: for pest or weed control at 100 ppm / pest or weed control at 20 ppm: Pyricularia oryzae, 120 h; for pest or weed control at 100 ppm: read-out: disease control rating, Ex. E, 100 PPM; for pest or weed control at 20 ppm: read-out: disease control rating, Ex. E, 20 PPM
Rhizoctonia solani = experiment: Example F rice sheath blight; assay type: in vivo; conditions: for pest or weed control at 100 ppm / pest or weed control at 20 ppm: Rhizoctonia solani, 144 h, read-out: disease control rating, Ex. F
Experimental: as §1, with “rice seedlings.” for “apple seedings.”

Puccinia recondita = experiment: Example G wheat leaf rust; assay type: in vivo; conditions: read-out: disease control rating, Ex. G
Phytophthora infestans = experiment: whole plant or invertebrate; assay type: in vivo; conditions: for pest or weed control at 100 ppm: Phytophthora infestans, in Solanum lycopersicum, read-out: disease control rating, Ex. H, 100 PPM
Plasmorpara viticola = experiment: Example I grape downy mildew; assay type: in vivo; conditions: for pest or weed control at 100 ppm: read-out: disease control rating, Ex. I
Experimental: as §1, with “grape seedlings.” for “apple seedings.”

Pythium aphanadermatum = experiment: Example J cucumber damping off; assay type: in vivo; parameters: key to phytotoxicity entry, Ex. J: P: disease control was not measured due to phytoxicity; conditions: 5 kg/ha; for pest or weed control at 5000 g/ha: Pythium, 336 h, read-out: disease control rating, Ex. J
Experimental: […] Seeds and soil were then inoculated with a mixture of sand, cereal and mycelium of the fungus Pythium aphanadermatum, causal agent of cucumber damping off, and incubated in a growth chamber at 30° C. for 14 days. Disease ratings were then made.

[4] = system: Candida albicans ATCC 11651; experiment: In vitro antifungal MIC, microtiter broth dilution; conditions: for MIC: Candida albicans, ATCC11651, 24 h, read-out: MIC values, C. albicans, 30°, 24 hours
[5] = system: Aspergillus fumigatus ATCC 28214; experiment: In vitro antifungal MIC, microtiter broth dilution; conditions: for MIC: Aspergillus fumigatus, ATCC28214, 24 h, read-out: MIC values, A. fumigatus, 30°, 24 hours

SMILES	responders at 150 mg/kg ([1]; ATCC11651, 168 h, day 7)	responders at 150 mg/kg ([1]; ATCC11651, 336 h, day 14)	responders at 150 mg/kg ([1]; ATCC11651, 504 h, day 21)	pest or weed control at 100 ppm (Venturia inaequalis)	pest or weed control at 100 ppm [2]	pest or weed control at 100 ppm (Botrytis cinerea; 100 PPM)	pest or weed control at 100 ppm [3]	pest or weed control at 100 ppm (Pyricularia oryzae)	pest or weed control at 100 ppm (Rhizoctonia solani; 100 PPM)	pest or weed control at 100 ppm (Phytophthora infestans)	pest or weed control at 100 ppm (Plasmorpara viticola)	MIC [4]	MIC [5]	pest or weed control at 20 ppm (Venturia inaequalis)	pest or weed control at 20 ppm [2]	pest or weed control at 20 ppm (Botrytis cinerea)	pest or weed control at 20 ppm [3]	pest or weed control at 20 ppm (Pyricularia oryzae)	pest or weed control at 20 ppm (Rhizoctonia solani)	pest or weed control at 20 ppm (Puccinia recondita)	other results
C=C(c1ccc(F)cc1)C(O)(Cn1cncn1)c1ccccc1 (stereo not drawn) [Example 656]	100%	90%	40%	93%	100%	88%	97%	0%	50%	0%	20%	≤ 0.4 µg/mL	12.5 µg/mL (≈ 40.4 µM)								pest or weed control at 100 ppm (Puccinia recondita): 100%; pest or weed control at 5000 g/ha (Pythium aphanadermatum): 0%
C=C(c1ccccc1Cl)C(O)(Cn1cncn1)c1ccc(Cl)c(Cl)c1 (stereo not drawn) [Example 627]	0%	0%	0%			38%		0%	14%	0%	61%	0.03 µg/mL (≈ 0.076 µM)	25 µg/mL (≈ 63.3 µM)	31%	70%	19%	81%	0%	0%	99%	
C=C(c1ccccc1C(F)(F)F)C(O)(Cn1cncn1)c1ccc(F)cc1 (stereo not drawn) [Example 724]	100%	90%	40%	100%	100%	95%	100%	63%	100%	0%	0%	0.4 µg/mL (≈ 1.06 µM)	0.4 µg/mL (≈ 1.06 µM)								pest or weed control at 100 ppm (Puccinia recondita): 100%; pest or weed control at 5000 g/ha (Pythium aphanadermatum): 0%
C=C(c1ccccc1)C(O)(Cn1cncn1)c1ccccc1Cl (stereo not drawn) [Example 596]	70%	60%	40%			89%		0%	0%	0%	25%	0.05 µg/mL (≈ 0.153 µM)	0.4 µg/mL (≈ 1.23 µM)	91%	95%	35%	94%	0%	0%	100%	
C=C(c1cccc(Cl)c1)C(O)(Cn1cncn1)c1ccc(F)cc1F (stereo not drawn) [Example 42]	80%	80%	50%			100%	100%	31%	41%	0%	23%	0.03 µg/mL (≈ 0.0829 µM)	6.3 µg/mL (≈ 17.4 µM)	29%	100%	38%	98%	15%	0%	100%	
C=C(CN1CC(C)OC(C)C1)C(O)(Cn1cncn1)c1ccc(F)cc1 (stereo not drawn) [Example 477]				95%	100%	76%	100%	48%	48%	0%	0%	> 100 µg/mL									pest or weed control at 100 ppm (Puccinia recondita): 100%; phytotoxicity entry, Ex. J (Pythium aphanadermatum): P
C=C(c1ccc(F)cc1)C(O)(Cn1cncn1)c1ccc(F)cc1 (single isomer, unassigned) [Example 1277a]														58%	74%	24%	95%	1%	0%	100%	% Survival ([1]; day 7): 80%; % Survival ([1]; day 14): 0%; % Survival ([1]; day 21): 0%; disease control rating, Ex. C (Botrytis cinerea; 100 PPM): 36%; disease control rating, Ex. E (Pyricularia oryzae; 100 PPM): 1%; disease control rating, Ex. F (Rhizoctonia solani; 100 PPM): 52%; disease control rating, Ex. H (Phytophthora infestans; 100 PPM): 8%; disease control rating, Ex. I (Plasmorpara viticola; 100 PPM): 31%; MIC values, C. albicans ([4]; 30°, 24 hours): 6.3 µg/mL (≈ 19.2 µM); MIC values, A. fumigatus ([5]; 30°, 24 hours): 100 µg/mL (≈ 305 µM)
C=C(c1ccc(SC)cc1)C(O)(Cn1cncn1)c1ccc(F)cc1F (stereo not drawn) [Example 164]	100%	80%	70%			84%		15%	0%	8%	0%	0.03 µg/mL (≈ 0.0803 µM)	1.6 µg/mL (≈ 4.28 µM)	82%	100%	57%	88%	5%	0%	100%	
C=C(c1ccc(F)cc1)C(O)(CC)Cn1cncn1 (stereo not drawn) [Example 668]	70%	10%	0%			76%		1%	0%	22%	31%	0.4 µg/mL (≈ 1.53 µM)	50 µg/mL (≈ 191 µM)	65%	17%	31%	31%	1%	0%	100%	
